This passage reports IC50, inhibition in vivo and half-life results from ChEMBL document CHEMBL5346859, “Dual-target Janus kinase (JAK) inhibitors: Comprehensive review on the JAK-based strategies for treating solid or hematological malignancies and immune-related diseases” (Eur J Med Chem, 2022).

The target of data set [1] is T1, Proto-oncogene tyrosine-protein kinase Src (Homo sapiens, UniProt P12931). As to the kind of experiment: Inhibition of recombinant GST-tagged c-Src catalytic domain (unknown origin) using pEY (4:1) as substrate incubated for 120 mins in presence of 33P-labeled ATP.
Data set [2] concerns the target T2, Tyrosine-protein kinase JAK2 (Homo sapiens, UniProt O60674). Nature of the data set: Inhibition of recombinant GST-tagged JAK2 catalytic domain (unknown origin) using pEY (4:1) as substrate incubated for 120 mins in presence of 33P-labeled ATP.
The target of data set [3] is T3, Non-receptor tyrosine-protein kinase TYK2 (Homo sapiens, UniProt P29597). Nature of the data set: Inhibition of recombinant GST-tagged TYK2 catalytic domain (unknown origin) using pEY (4:1) as substrate incubated for 120 mins in presence of 33P-labeled ATP.
Data set [4] concerns A2058. Nature of the data set: Antitumor activity against human A2058 cells xenografted in NSG mouse assessed as tumor growth inhibition at 25 mg/kg, po administered twice daily for 18 days relative to control. The class given is functional. As to conditions: A2058, 432 h, time 18 day, read-out: TGI. For orientation: A xenograft is tissue or cells of one species grown in another, often human tumour cells in immunodeficient mice.

Data set [5] concerns the target T4, Tyrosine-protein kinase JAK1 (Homo sapiens, UniProt P23458). Nature of the data set: Inhibition of recombinant GST-tagged JAK1 catalytic domain (unknown origin) using pEY (4:1) as substrate incubated for 120 mins in presence of 33P-labeled ATP.
Data set [6] concerns the target T2, Tyrosine-protein kinase JAK2. Nature of the data set: Inhibition of recombinant JAK2 (unknown origin) incubated for 120 mins in presence of [33P]-ATP by hotspot assay.
The subject of data set [7] is MIA PaCa-2. As to the kind of experiment: Antiproliferative activity against human MIA PaCa-2 cells assessed as inhibition of cell growth incubated for 48 hrs by MTS assay. Format: functional, cell-based. The conditions noted are these: MIA PaCa-2, 48 h. (Tetrazolium assays rely on reduction of a dye to a coloured formazan, in cell work by metabolically active cells.)

Data set [8] has as its target T1, Proto-oncogene tyrosine-protein kinase Src. Nature of the data set: Inhibition of recombinant c-Src (unknown origin) incubated for 120 mins in presence of [33P]-ATP by hotspot assay.
Data set [9] concerns the target T3, Non-receptor tyrosine-protein kinase TYK2. Nature of the data set: Inhibition of recombinant TYK2 (unknown origin) incubated for 120 mins in presence of [33P]-ATP by hotspot assay.
Data set [10] has as its target T4, Tyrosine-protein kinase JAK1. As to the kind of experiment: Inhibition of recombinant JAK1 (unknown origin) incubated for 120 mins in presence of [33P]-ATP by hotspot assay.
Data set [11] concerns the target T5, Receptor-type tyrosine-protein kinase FLT3 (Homo sapiens, UniProt P36888).
T5 sequence (P36888 whole entry): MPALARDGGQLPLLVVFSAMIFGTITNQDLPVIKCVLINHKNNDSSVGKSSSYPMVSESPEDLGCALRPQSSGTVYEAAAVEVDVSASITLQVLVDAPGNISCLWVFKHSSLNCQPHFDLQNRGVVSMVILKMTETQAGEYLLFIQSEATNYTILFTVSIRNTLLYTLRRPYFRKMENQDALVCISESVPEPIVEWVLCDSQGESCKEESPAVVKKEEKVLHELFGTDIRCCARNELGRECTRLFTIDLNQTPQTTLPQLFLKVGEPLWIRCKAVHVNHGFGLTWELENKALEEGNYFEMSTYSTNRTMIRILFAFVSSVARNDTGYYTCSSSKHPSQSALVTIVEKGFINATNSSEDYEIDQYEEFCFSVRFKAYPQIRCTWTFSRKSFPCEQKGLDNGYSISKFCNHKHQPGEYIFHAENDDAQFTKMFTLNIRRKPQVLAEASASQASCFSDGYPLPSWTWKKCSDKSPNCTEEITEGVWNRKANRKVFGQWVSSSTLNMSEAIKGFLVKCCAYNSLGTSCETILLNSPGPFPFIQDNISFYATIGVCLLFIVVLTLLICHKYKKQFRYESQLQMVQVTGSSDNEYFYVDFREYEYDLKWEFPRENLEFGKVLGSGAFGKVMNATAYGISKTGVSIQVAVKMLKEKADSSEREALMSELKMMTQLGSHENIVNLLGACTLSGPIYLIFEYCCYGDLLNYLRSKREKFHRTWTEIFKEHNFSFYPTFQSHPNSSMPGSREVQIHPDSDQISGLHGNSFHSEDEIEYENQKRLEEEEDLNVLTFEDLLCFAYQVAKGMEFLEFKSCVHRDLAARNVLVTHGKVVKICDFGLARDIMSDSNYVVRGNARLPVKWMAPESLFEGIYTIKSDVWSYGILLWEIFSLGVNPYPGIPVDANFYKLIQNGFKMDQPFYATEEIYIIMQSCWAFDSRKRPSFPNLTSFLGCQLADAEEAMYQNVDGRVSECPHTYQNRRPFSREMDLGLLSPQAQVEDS
As to the kind of experiment: Inhibition of FLT3 (unknown origin) using FAM-labeled peptide as substrate preincubated with compound for 10 mins followed by substrate addition and measured after 60 mins in presence of ATP.

Data set [12] concerns the target T2, Tyrosine-protein kinase JAK2. Nature of the data set: Inhibition of JAK2 (unknown origin) using FAM-labeled peptide as substrate preincubated with compound for 10 mins followed by substrate addition and measured after 60 mins in presence of ATP.
In data set [13] the test system is MOLM-13. Nature of the data set: Antiproliferative activity against human MOLM-13 cells assessed as inhibition of cell growth incubated for 48 hrs by CCK-8 assay. The conditions noted are these: MOLM-13, 48 h. The class given is functional, cell-based.
For data set [14], the system named is HEL. Nature of the data set: Antiproliferative activity against HEL cells assessed as inhibition of cell growth incubated for 48 hrs by CCK-8 assay. The class given is functional, cell-based. The conditions noted are these: Homo sapiens.
Data set [15] in a line: Metabolic stability in rat liver microsomes assessed as half life by LC-MS/MS analysis. The class given is ADME, Microsome.
Data set [16] addresses T2, Tyrosine-protein kinase JAK2.
For data set [17], the target named is T5, Receptor-type tyrosine-protein kinase FLT3.

Structures are written as SMILES.

T2 sequence (O60674 whole entry, the tested form may be a part): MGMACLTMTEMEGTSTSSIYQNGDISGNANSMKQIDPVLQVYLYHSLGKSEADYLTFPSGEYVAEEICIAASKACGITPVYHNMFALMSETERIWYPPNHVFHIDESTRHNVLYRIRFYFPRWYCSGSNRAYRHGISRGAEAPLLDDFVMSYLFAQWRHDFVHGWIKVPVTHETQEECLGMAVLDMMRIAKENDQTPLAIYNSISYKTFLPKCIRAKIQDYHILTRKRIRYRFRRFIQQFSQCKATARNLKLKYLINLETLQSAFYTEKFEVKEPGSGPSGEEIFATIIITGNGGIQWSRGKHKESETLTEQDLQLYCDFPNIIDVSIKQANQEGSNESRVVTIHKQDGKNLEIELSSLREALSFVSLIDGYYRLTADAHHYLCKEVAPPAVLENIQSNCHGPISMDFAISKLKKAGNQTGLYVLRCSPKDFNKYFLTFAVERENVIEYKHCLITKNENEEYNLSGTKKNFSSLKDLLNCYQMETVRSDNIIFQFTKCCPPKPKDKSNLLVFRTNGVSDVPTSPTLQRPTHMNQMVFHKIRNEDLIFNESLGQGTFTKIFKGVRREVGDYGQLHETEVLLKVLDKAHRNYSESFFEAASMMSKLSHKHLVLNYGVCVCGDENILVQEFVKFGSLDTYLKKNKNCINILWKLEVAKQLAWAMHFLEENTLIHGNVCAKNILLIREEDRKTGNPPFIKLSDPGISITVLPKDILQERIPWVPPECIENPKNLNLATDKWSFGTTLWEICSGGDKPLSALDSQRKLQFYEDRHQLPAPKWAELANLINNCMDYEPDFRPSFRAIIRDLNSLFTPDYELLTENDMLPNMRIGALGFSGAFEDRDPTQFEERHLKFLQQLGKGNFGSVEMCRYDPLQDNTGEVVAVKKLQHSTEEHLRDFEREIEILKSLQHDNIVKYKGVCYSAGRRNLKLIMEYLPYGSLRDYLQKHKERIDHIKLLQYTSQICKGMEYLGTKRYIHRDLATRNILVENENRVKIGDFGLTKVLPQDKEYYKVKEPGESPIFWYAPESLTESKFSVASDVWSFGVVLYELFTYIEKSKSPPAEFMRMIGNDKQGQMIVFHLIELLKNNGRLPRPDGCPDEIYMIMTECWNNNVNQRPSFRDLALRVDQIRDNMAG
T1 sequence (P12931 2-536 limits assumed): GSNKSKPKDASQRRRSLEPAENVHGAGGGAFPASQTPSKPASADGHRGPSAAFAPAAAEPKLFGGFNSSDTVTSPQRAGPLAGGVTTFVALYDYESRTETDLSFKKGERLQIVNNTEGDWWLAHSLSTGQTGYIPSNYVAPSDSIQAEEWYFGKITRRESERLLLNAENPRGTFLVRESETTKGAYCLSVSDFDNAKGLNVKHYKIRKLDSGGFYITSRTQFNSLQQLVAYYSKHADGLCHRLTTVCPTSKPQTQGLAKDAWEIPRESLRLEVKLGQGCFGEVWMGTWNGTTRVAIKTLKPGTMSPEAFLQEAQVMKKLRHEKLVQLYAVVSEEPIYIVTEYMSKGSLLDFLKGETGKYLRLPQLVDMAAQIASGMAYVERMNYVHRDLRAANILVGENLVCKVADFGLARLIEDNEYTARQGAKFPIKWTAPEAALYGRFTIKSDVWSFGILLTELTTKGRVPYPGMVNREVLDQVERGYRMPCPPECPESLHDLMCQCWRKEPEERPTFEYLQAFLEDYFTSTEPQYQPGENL
T3 sequence (P29597 whole entry, the tested form may be a part): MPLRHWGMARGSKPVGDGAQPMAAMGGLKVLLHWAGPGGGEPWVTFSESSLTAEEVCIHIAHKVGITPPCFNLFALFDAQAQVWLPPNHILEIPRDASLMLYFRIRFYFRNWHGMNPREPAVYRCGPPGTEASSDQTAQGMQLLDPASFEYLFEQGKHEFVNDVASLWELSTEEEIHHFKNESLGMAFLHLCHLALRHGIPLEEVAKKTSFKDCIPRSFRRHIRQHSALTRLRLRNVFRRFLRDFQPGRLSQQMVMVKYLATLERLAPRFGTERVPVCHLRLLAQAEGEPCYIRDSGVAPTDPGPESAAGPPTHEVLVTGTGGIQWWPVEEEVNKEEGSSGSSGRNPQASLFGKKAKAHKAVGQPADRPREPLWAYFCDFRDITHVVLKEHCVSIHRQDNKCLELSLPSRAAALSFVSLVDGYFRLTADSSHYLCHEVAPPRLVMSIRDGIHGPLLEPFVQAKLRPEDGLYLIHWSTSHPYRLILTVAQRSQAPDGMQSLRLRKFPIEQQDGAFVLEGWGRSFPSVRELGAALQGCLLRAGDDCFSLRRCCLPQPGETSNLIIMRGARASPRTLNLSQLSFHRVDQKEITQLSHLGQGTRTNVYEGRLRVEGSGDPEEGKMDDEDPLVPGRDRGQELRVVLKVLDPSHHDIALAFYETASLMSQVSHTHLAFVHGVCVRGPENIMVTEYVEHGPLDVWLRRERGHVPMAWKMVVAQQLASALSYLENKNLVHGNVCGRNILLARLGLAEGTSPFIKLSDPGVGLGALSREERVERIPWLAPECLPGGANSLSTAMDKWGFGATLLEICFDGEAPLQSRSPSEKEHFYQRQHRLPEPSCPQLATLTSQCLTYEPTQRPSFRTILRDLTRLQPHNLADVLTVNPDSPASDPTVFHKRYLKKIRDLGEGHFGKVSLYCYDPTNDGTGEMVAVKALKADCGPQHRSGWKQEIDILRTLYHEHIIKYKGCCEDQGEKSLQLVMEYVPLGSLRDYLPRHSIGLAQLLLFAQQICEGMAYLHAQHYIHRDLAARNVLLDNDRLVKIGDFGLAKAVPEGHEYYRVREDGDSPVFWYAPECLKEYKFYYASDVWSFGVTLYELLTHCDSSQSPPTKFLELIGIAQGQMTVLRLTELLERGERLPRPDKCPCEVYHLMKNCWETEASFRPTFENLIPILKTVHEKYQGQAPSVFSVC
T4 sequence (P23458 whole entry, the tested form may be a part): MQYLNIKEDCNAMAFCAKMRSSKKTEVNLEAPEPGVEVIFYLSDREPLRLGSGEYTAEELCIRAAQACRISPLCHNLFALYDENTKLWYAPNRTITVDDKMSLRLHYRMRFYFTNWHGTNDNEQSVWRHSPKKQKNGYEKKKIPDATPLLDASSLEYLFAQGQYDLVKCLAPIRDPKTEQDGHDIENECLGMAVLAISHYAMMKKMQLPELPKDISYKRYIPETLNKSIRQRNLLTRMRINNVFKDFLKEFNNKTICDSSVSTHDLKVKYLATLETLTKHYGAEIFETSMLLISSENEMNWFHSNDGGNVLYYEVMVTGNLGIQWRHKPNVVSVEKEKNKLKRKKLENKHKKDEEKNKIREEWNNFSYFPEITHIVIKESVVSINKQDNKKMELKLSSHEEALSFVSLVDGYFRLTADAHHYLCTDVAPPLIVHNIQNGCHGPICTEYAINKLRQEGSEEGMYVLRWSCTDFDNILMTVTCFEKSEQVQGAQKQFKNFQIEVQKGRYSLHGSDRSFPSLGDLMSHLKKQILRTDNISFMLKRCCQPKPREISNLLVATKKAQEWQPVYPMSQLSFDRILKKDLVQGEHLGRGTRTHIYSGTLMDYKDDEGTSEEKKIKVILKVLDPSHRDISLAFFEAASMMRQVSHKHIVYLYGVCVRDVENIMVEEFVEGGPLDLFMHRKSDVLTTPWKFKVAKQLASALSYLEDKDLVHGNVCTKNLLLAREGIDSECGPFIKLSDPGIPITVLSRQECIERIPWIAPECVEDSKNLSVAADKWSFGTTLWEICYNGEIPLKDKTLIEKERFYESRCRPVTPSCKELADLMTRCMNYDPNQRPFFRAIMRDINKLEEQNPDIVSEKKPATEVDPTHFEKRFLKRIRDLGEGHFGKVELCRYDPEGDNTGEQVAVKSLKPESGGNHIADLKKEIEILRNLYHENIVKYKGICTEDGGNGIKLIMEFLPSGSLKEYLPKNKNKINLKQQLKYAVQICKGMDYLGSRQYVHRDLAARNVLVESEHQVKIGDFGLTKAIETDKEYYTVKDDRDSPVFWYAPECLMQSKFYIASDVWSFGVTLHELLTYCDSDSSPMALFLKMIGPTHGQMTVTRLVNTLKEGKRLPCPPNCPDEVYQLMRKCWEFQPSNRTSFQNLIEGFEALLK

For `O=C1Nc2cc(Br)ccc2/C1=C1/Nc2ccccc2/C1=N\OCCN1CCNCC1`, the IC50 in data set [1] came out at 0.0002 µM; in data set [2], 0.028 µM; in [3], 0.05 µM; in data set [5], 0.6 µM. Further, in [4], the inhibition in vivo at 25 mg/kg amounted to 50%.
On to `COc1ccc2c(c1)/C(=C1/Nc3ccccc3/C1=N\OCC(O)CO)C(=O)N2` (stereo not given), for which the IC50 in data set [6] turned out to be 0.0741 µM; in [7], 0.68 µM; in [8] it was 0.0104 µM; in [9], 0.0007 µM; in [10], 0.0104 µM.
Turning to `O=C1Nc2c(Br)cccc2/C1=C1/Nc2ccccc2/C1=N\OCCN1CCNCC1`, in data set [2], the IC50 was greater than 10 µM.
Regarding `CC(=O)c1ccc(NC(=O)N2CCN(c3ccnc(Nc4ccc(N5CCOCC5)cc4)n3)CC2)cc1`, the IC50 stood at 0.0014 µM in [11] and 0.0029 µM in [12].
In the case of `CC(=O)c1ccc(NC(=O)N2CCN(c3nc(Nc4ccc(N5CCOCC5)cc4)ncc3Cl)CC2)cc1`, the IC50 is 0.019 µM in [13], 0.00068 µM in [11], 0.5 µM in [14] and 0.0018 µM in [12]. In addition, in [15], the half-life came to 31 min.
For the compound `COc1ccc2cc1COC/C=C/COCc1cccc(c1)-c1ccnc(n1)N2`, the IC50 in data set [16] was found to be 0.07 µM; in data set [17], 0.19 µM.

As a reminder, the IC50 is the point on the concentration scale where inhibition reaches its midpoint. What is called half-life is how long it takes for the measured level to halve.
